Patent publication US10450301B2, “Apoptosis signal-regulating kinase 1 inhibitors and methods of use thereof” (ENANTA PHARMACEUTICALS, INC., priority 2017, dated 2019)

Biological target: ASK1 (Homo sapiens (Human), UniProt Q99683)
Test: HTRF KinEASE Assay (TR-FRET, STK3 peptide substrate), inhibition of ASK1
Format: biochemical
Details: 5 nM ASK1 kinase, 1 μM STK3 peptide substrate, 100 μM ATP, 3 hours; compound 0 to 10 μM
Description: Assay HTRF® KinEASE™ Assay
ASK1 was purchased from Thermofisher (Catalogue # PV4011), ATP was purchased from Sigma (Catalogue # A7699), HI-TRF® KinEASE™ Assay System was obtained from Cisbio (Bedford, Mass.). […] HTRF® KinEASE™-STK is a generic method for measuring serine/threonine kinase activities using a time-resolved fluorescence resonance energy transfer (TR-FRET) immunoassay. […] 100 Um ATP is added to start kinase reaction and incubated for 3 hours. The STK3-antibody labeled with Eu^3+-Cryptate and 125 Nm streptavidin-XL665 are mixed in a single addition with stop reagents provided by the Cisbio kit used to stop the kinase reaction. […] The resulting TR-FRET is proportional to the phosphorylation level. Staurosporine was used as the positive control. IC50 was determined by Xlfit 5.3.
By using above method, the inhibition of ASK1 was evaluated for the compounds of Formula (I).

Sequence of ASK1 (Q99683 whole entry): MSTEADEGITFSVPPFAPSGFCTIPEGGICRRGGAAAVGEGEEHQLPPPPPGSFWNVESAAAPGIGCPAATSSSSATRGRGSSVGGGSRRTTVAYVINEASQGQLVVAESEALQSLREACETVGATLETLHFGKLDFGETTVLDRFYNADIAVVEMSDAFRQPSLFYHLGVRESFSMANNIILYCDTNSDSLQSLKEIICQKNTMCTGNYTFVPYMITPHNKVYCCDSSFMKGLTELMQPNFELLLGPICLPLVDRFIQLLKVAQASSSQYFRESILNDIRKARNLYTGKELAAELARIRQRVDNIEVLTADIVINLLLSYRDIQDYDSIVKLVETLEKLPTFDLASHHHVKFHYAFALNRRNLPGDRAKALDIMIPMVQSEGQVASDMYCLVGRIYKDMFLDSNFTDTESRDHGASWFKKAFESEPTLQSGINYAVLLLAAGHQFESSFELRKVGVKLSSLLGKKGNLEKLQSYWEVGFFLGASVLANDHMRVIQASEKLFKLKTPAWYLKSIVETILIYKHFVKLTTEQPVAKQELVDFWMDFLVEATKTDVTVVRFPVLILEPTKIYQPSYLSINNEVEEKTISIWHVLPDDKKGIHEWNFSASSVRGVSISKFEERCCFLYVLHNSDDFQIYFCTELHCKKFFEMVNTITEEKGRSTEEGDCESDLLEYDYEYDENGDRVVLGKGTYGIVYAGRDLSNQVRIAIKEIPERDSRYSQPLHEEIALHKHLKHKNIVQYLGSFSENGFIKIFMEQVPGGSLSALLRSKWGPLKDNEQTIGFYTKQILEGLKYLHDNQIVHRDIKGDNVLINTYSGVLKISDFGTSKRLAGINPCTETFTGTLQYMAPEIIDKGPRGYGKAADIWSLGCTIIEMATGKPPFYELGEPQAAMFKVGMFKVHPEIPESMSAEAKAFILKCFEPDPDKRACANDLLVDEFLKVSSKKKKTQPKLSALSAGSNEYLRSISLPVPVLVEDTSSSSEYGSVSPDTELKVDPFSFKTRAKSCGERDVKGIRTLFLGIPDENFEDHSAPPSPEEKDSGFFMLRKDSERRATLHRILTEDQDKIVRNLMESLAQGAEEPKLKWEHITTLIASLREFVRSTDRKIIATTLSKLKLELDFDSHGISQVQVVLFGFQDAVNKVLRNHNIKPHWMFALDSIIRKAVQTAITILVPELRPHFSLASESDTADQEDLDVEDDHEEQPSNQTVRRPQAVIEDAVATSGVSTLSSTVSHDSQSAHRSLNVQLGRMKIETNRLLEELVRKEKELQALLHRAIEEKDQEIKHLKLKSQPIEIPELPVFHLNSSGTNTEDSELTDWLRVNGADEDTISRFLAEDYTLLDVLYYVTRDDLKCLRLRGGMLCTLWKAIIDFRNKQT

| SMILES | IC50 [nM] |
| --- | --- |
| CC(C)n1nnnc1-c1cccc(NC(=O)c2cc3c(cc2F)CCN(c2ccccc2)C3)n1 [Example 54, 6-fluoro-N-(6-(1-isopropyl-1H-tetrazol-5-yl)pyridin-2-yl)-2-phenyl-1,2,3,4-tetrahydroisoquinoline-7-carboxamide] | 10 to 100 |
| COCCS(=O)(=O)N1CCc2cc(F)c(C(=O)Nc3cccc(-c4nnnn4C(C)C)n3)cc2C1 [Example 55] | 10 to 100 |
| CC(C)n1nnnc1-c1cccc(NC(=O)c2cc3c(cc2F)CCN(C(=O)NC2CCCC2)C3)n1 [Example 56] | 10 to 100 |
| CC(C)n1nnnc1-c1cccc(NC(=O)c2cc3c(cc2F)CCN(C(=O)OC2CCCC2)C3)n1 [Example 57] | 10 to 100 |
| CC(C)n1nnnc1-c1cccc(NC(=O)c2cc3c(cc2F)CCNC3)n1 [Example 58] | 100 to 1000 |
| C=CCOC(=O)N1CCc2ccc(C(=O)Nc3cccc(-c4nncn4C(C)C)n3)cc2C1 [Example 59, allyl 7-((6-(4-isopropyl-4H-1,2,4-triazol-3-yl)pyridin-2-yl)carbamoyl)-3,4-dihydroisoquinoline-2(1H)-carboxylate] | 10 to 100 |
| COCCC(=O)N1CCc2ccc(C(=O)Nc3cccc(-c4nncn4C(C)C)n3)cc2C1 [Example 60] | 10 to 100 |
| CC(C)n1cnnc1-c1cccc(NC(=O)c2ccc3c(c2)CN(C(=O)NC2CCCC2)CC3)n1 [Example 61] | 10 to 100 |
| CCCCNC(=O)N1CCc2ccc(C(=O)Nc3cccc(-c4nncn4C(C)C)n3)cc2C1 [Example 62] | 1 to 10 |
| CCNC(=O)N1CCc2ccc(C(=O)Nc3cccc(-c4nncn4C(C)C)n3)cc2C1 [Example 63] | 1 to 10 |
| C=CCCOC(=O)N1CCc2ccc(C(=O)Nc3cccc(-c4nncn4C(C)C)n3)cc2C1 [Example 64] | 10 to 100 |
| CC(C)n1cnnc1-c1cccc(NC(=O)c2ccc3c(c2)CN(C(=O)OCCF)CC3)n1 [Example 65] | 10 to 100 |
| CC(C)COC(=O)N1CCc2ccc(C(=O)Nc3cccc(-c4nncn4C(C)C)n3)cc2C1 [Example 66] | 10 to 100 |
| CC(C)n1cnnc1-c1cccc(NC(=O)c2ccc3c(c2)CN(C(=O)OCc2ccccc2)CC3)n1 [Example 67, benzyl 7-((6-(4-isopropyl-4H-1,2,4-triazol-3-yl)pyridin-2-yl)carbamoyl)-3,4-dihydroisoquinoline-2(1H)-carboxylate] | 10 to 100 |
| CC1NCCc2cc(F)c(C(=O)Nc3cccc(-c4nnnn4C(C)C)n3)cc21 (centres unmarked) [Example 68, 6-fluoro-N-(6-(1-isopropyl-1H-tetrazol-5-yl)pyridin-2-yl)-1-methyl-1,2,3,4-tetrahydroiso-quinoline-7-carboxamide] | 100 to 1000 |
| CC1c2cc(C(=O)Nc3cccc(-c4nnnn4C(C)C)n3)c(F)cc2CCN1C(=O)N1CCCC1 (centres unmarked) [Example 69] | 10 to 100 |
| CC1c2cc(C(=O)Nc3cccc(-c4nnnn4C(C)C)n3)c(F)cc2CCN1S(=O)(=O)CCC(F)(F)F (centres unmarked) [Example 70] | 10 to 100 |
| CC(C)c1nnnn1-c1cccc(NC(=O)c2cc3c(cc2F)CCNC3)n1 [Example 71] | > 1000 |
| CC(=O)OC[C@@H](C)n1nnnc1-c1cccc(NC(=O)c2cc3c(cc2F)CCN(C(=O)N(C)CC(F)(F)F)C3)n1 [Example 72] | > 1000 |
| CC(=O)OC[C@@H](C)n1nnnc1-c1cccc(NC(=O)c2cc3c(cc2F)CCN(C(=O)N2CCCC2)C3)n1 [Example 73] | > 1000 |
| CC1c2cc(C(=O)Nc3cccc(-c4nnnn4C(C)C)n3)c(F)cc2CCN1C(=O)OCc1ccccc1 (centres unmarked) [Example 74, benzyl 6-fluoro-7-((6-(1-isopropyl-1H-tetrazol-5-yl)pyridin-2-yl)carbamoyl)-1-methyl-3,4-dihydroisoquinoline-2(1H)-carboxylate] | 100 to 1000 |
| C[C@H](CO)n1nnnc1-c1cccc(NC(=O)c2cc3c(cc2F)CCN(C(=O)N(C)CC(F)(F)F)C3)n1 [Example 75, (R)-6-fluoro-N7-(6-(1-(1-hydroxypropan-2-yl)-1H-tetrazol-5-yl)pyridin-2-yl)-N2-methyl-N2-(2,2,2-trifluoroethyl)-3,4-dihydroisoquinoline-2,7(1H)-dicarboxamide] | 10 to 100 |
| C[C@H](CO)n1nnnc1-c1cccc(NC(=O)c2cc3c(cc2F)CCN(C(=O)N2CCCC2)C3)n1 [Example 76] | 1 to 10 |
| CC(C)n1nnnc1-c1cccc(NC(=O)c2cc3c(cc2F)CCN(C(=O)N(C)CC(F)(F)F)C3)n1 [Example 77] | 10 to 100 |
| CC(C)n1nnnc1-c1cccc(NC(=O)c2cc3c(cc2F)CCN(C(=O)N(C)C2CCCC2)C3)n1 [Example 78] | 10 to 100 |
| CC(C)CN(C)C(=O)N1CCc2cc(F)c(C(=O)Nc3cccc(-c4nnnn4C(C)C)n3)cc2C1 [Example 79] | 10 to 100 |
| CC(C)N(C)C(=O)N1CCc2cc(F)c(C(=O)Nc3cccc(-c4nnnn4C(C)C)n3)cc2C1 [Example 80] | 10 to 100 |
| CC(=O)OC[C@@H](C)n1nnnc1-c1cccc(NC(=O)c2cc3c(cc2F)CCNC3)n1 [Example 81] | > 1000 |
| C[C@H](CO)n1nnnc1-c1cccc(NC(=O)c2cc3c(cc2F)CCN(S(=O)(=O)CCC(F)(F)F)C3)n1 [Example 82] | 1 to 10 |
| CC(C)c1nnnn1-c1cccc(NC(=O)c2cc3c(cc2F)CCN(C(=O)OCc2ccccc2)C3)n1 [Example 83, benzyl 6-fluoro-7-((6-(5-isopropyl-1H-tetrazol-1-yl)pyridin-2-yl)carbamoyl)-3,4-dihydroisoquinoline-2(1H)-carboxylate] | > 1000 |

Results, then the compound that gave them:

| IC50 [nM] | SMILES |
| --- | --- |
| > 1000 | CC(=O)OC[C@@H](C)n1nnnc1-c1cccc(NC(=O)c2cc3c(cc2F)CCN(S(=O)(=O)CCC(F)(F)F)C3)n1 [Example 84] |
| 10 to 100 | CC(C)n1nnnc1-c1cccc(NC(=O)c2cc3c(cc2F)CCN(S(=O)(=O)C2CCCC2)C3)n1 [Example 85] |
| 10 to 100 | CC(C)CS(=O)(=O)N1CCc2cc(F)c(C(=O)Nc3cccc(-c4nnnn4C(C)C)n3)cc2C1 [Example 86] |
| 10 to 100 | CC(C)n1nnnc1-c1cccc(NC(=O)c2cc3c(cc2F)CCN(S(=O)(=O)CC2CC2)C3)n1 [Example 87] |
| > 1000 | CC(C)n1nnnc1-c1cccc(NC(=O)c2cc3c(cc2F)CCN(S(=O)(=O)C2CC2)C3)n1 [Example 88] |
| 10 to 100 | CC(C)n1nnnc1-c1cccc(NC(=O)c2cc3c(cc2F)CCN(S(=O)(=O)N(C)C)C3)n1 [Example 89] |
| 10 to 100 | CCN1CCN(C(=O)N2CCc3cc(F)c(C(=O)Nc4cccc(-c5nnnn5C(C)C)n4)cc3C2)C(=O)C1=O [Example 90] |
| 10 to 100 | CC(C)n1nnnc1-c1cccc(NC(=O)c2cc3c(cc2F)CCN(C(=O)N2CCN(C)CC2)C3)n1 [Example 91] |
| 10 to 100 | CC(C)n1nnnc1-c1cccc(NC(=O)c2cc3c(cc2F)CCN(C(=O)N2CCOCC2)C3)n1 [Example 92] |
| 10 to 100 | CC(C)n1nnnc1-c1cccc(NC(=O)c2cc3c(cc2F)CCN(C(=O)N2CCCC2)C3)n1 [Example 93] |
| 1 to 10 | CCN(CC)C(=O)N1CCc2cc(F)c(C(=O)Nc3cccc(-c4nnnn4C(C)C)n3)cc2C1 [Example 94] |
| 10 to 100 | CCN(C)C(=O)N1CCc2cc(F)c(C(=O)Nc3cccc(-c4nnnn4C(C)C)n3)cc2C1 [Example 95] |
| 10 to 100 | CC(C)n1nnnc1-c1cccc(NC(=O)c2cc3c(cc2F)CCN(C(=O)N(C)C)C3)n1 [Example 96] |
| 10 to 100 | CC(C)n1nnnc1-c1cccc(NC(=O)c2cc3c(cc2F)CCN(C(=O)C2CCCC2)C3)n1 [Example 97] |
| > 1000 | CCN1CCc2cc(F)c(C(=O)Nc3cccc(-c4nnnn4C(C)C)n3)cc2C1=O [Example 98, 2-ethyl-6-fluoro-N-(6-(1-isopropyl-1H-tetrazol-5-yl)pyridin-2-yl)-1-oxo-1,2,3,4-tetrahydroisoquinoline-7-carboxamide] |
| 100 to 1000 | CC(C)c1nnnn1-c1cccc(NC(=O)c2cc3c(cc2F)CCN(C(=O)N(C)CCC(F)(F)F)C3)n1 [Example 99] |
| > 1000 | CC(C)c1nnnn1-c1cccc(NC(=O)c2cc3c(cc2F)CCN(S(=O)(=O)CCC(F)(F)F)C3)n1 [Example 100] |
| > 1000 | CCN(C)C(=O)N1CCc2cc(F)c(C(=O)Nc3cccc(-n4nnnc4C(C)C)n3)cc2C1 [Example 101] |
| 10 to 100 | CC(C)n1nnnc1-c1cccc(NC(=O)c2cc3c(cc2F)CCN(S(=O)(=O)CC2CC(F)(F)C2)C3)n1 [Example 102] |
| 10 to 100 | CC(C)n1nnnc1-c1cccc(NC(=O)c2cc3c(cc2F)CCN(S(=O)(=O)CC(F)F)C3)n1 [Example 103] |
| 10 to 100 | CC(C)n1nnnc1-c1cccc(NC(=O)c2cc3c(cc2F)CCN(C(=O)N2CCS(=O)(=O)CC2)C3)n1 [Example 104] |
| 10 to 100 | CC(C)n1nnnc1-c1cccc(NC(=O)c2cc3c(cc2F)CCN(C(=O)N2CCSCC2)C3)n1 [Example 105] |
| 10 to 100 | CC(C)n1nnnc1-c1cccc(NC(=O)c2cc3c(cc2F)CCN(C(=O)N2C[C@@H](C)O[C@@H](C)C2)C3)n1 [Example 106] |
| 10 to 100 | CC(C)n1nnnc1-c1cccc(NC(=O)c2cc3c(cc2F)CCN(C(=O)N(C)CCC(F)(F)F)C3)n1 [Example 107] |
| 100 to 1000 | CC1c2cc(C(=O)Nc3cccc(-c4nnnn4C(C)C)n3)c(F)cc2CCN1CC(=O)N1CCCC1 (centres unmarked) [Example 108, 6-fluoro-N-(6-(1-isopropyl-1H-tetrazol-5-yl)pyridin-2-yl)-1-methyl-2-(2-oxo-2-(pyrrolidin-1-yl)ethyl)-1,2,3,4-tetrahydroisoquinoline-7-carboxamide] |
| > 1000 | CC(=O)OC[C@@H](C)n1nnnc1-c1cccc(NC(=O)c2cc3c(cc2F)CCN(C(=O)OCc2ccccc2)C3)n1 [Example 109] |
